In US11191850B2, “Molecular probes for detection and imaging of pancreatic cancer” (Portland State University, priority 2016, dated 2021):
“And” between values parts separate entries of the source, which are not always exact repeats. Equal values may be shown once. Blank lines part the entries; values can stand above or below the compound they belong to.

How the values were obtained:
[1] = UV-Vis absorption and fluorescence spectroscopy; assay type: physicochemical; design: Brightness: unit not given here; conditions: for pH and solvent sensitivity of UV and fluorescence spectra: 10-15 μM, aqueous 10% DMSO with HCl, NaOH or pH 7.4 buffer, various solvents; for Extinction coefficient / λmax abs: 10% DMSO
Description: UV-Vis absorption and fluorescence spectroscopy. UV-Vis spectra were collected with a Cary 50 UV-Vis spectrophotometer at room temperature, using a 1-cm quartz cuvette. Fluorescence spectra were collected on a Cary Eclipse fluorescence spectrophotometer (Agilent Technologies). All absorbance spectra were reference corrected. Fluorescence spectra were corrected for the wavelength dependent response of the R928 photomultiplier tube using a manufacturer generated correction file. Quantum yields are reported as the average of multiple measurements using multiple references. Excitation emission matrices (EEMs) were collected over various spectral regions, using 5-nm step sizes for emission and 10-nm step sizes for excitation. The band pass for excitation and emission was 5 to 10 nm.
(§1) Probes 1-13 were screened for pH and solvent sensitivity. Solvent sensitivity or dependence is at least partially attributable to differences in the equilibria between tautomeric forms of the compounds in the various solvents evaluated. The fluorophore concentrations ranged from 10-15 μM. Aqueous solutions contained 10% DMSO and 12.5 mM HCl, 12.5 mM NaOH, or pH 7.4 phosphate buffer.

[2] = pKa of ionizable fluorophores (pH sensitivity screening); assay type: physicochemical; conditions: aqueous solutions with 10% DMSO
Description: as §1

[3] = pH 7.4 phosphate buffer, methyl ether derivatives
[4] = pH 7.4 buffer, excited at 630 nm
[5] = pH 7.4 buffer, seminaphthorhodamines
[6] = pH 7.4 phosphate buffer, seminaphthorhodamines
[7] = acidic solution pH 1.9, HCl, excited at 480 nm or 510 nm
[8] = conjugate base, basic solution pH 12.1, NaOH
[9] = conjugate base, pH 12.1, NaOH, excited at 630 nm
[10] = basic solution pH 12.1, NaOH, 15 μM
[11] = conjugate acid, acidic solution pH 1.9, HCl, 15 μM
[12] = pH 7.4 buffer, excited at 480 nm
[13] = pH 7.4 buffer, methyl ether derivatives

SMILES: COC(=O)c1ccccc1-c1c2ccc(=N)cc-2oc2c1ccc1cccc(N)c12.Cl [Compound 9, 1-amino-7-(2-(methoxycarbonyl)phenyl)-10H-benzo[c]xanthen-10-iminium chloride]
- pH and solvent sensitivity of UV and fluorescence spectra [1]: not pH dependent, but were modestly solvent sensitive
- Quantum yield [1, 4]: 0.18%
- λmax em [1, 4]: 760 nm
- Brightness [1, 5]: 25
- Stokes shift [1, 5]: 184 nm
- Extinction coefficient [1, 6]: 13872 M⁻¹ cm⁻¹
- λmax abs [1, 6]: 576 nm

SMILES: COC(=O)c1ccccc1-c1c2ccc(=O)cc-2oc2c1ccc1cccc(N(C)C)c12 [Compound 8, methyl 2-(1-(dimethylamino)-10-oxo-10H-benzo[c]xanthen-7-yl)benzoate]
- pH and solvent sensitivity of UV and fluorescence spectra [1]: not affected by either solvent changes or by solution pH values above 2
- Stokes shift ([1]; basic solution pH 12.1, NaOH): 21 nm
- λmax em ([1]; basic solution pH 12.1, NaOH): 530 nm
- Extinction coefficient [1, 10]: 8834 M⁻¹ cm⁻¹
- λmax abs [1, 10]: 530 nm
- Extinction coefficient [1, 11]: 10132 M⁻¹ cm⁻¹
- λmax abs [1, 11]: 480 nm
- Stokes shift ([1]; conjugate acid, pH 1.9, HCl): 100 nm
- λmax em ([1]; conjugate acid, pH 1.9, HCl): 580 nm
- pKa ([2]; Table 5): 4.36 +/− 0.04

SMILES: COC(=O)c1ccccc1C1=c2cc3c4c(c2Oc2c1ccc1cccc(O)c21)CCC[N+]=4CCC3 [Compound 11, 15-hydroxy-9-(2-(methoxycarbonyl)phenyl)-1,2,3,5,6,7-hexahydrobenzo[7,8]chromeno[2,3-f]pyrido[3,2,1-ij]quinolin-4-ium chloride]
- pH and solvent sensitivity of UV and fluorescence spectra [1]: exhibit pH as well as solvent sensitivity
- Brightness ([1]; acidic solution pH 1.9, HCl): 2314
- Stokes shift ([1]; acidic solution pH 1.9, HCl): 39 nm
- Extinction coefficient ([1]; acidic solution pH 1.9, HCl): 15134 M⁻¹ cm⁻¹
- λmax abs ([1]; acidic solution pH 1.9, HCl): 585 nm
- Quantum yield [1, 7]: 15.29%
- λmax em [1, 7]: 624 nm
- Extinction coefficient [1, 8]: 14454 M⁻¹ cm⁻¹
- λmax abs [1, 8]: 643 nm
- Brightness ([1]; conjugate base, pH 12.1, NaOH): 43
- Stokes shift ([1]; conjugate base, pH 12.1, NaOH): 127 nm
- Quantum yield [1, 9]: 0.30%
- λmax em [1, 9]: 770 nm
- pKa ([2]; Table 1): 7.84 +/− 0.11

SMILES: COC(=O)c1ccccc1-c1c2ccc(=[N+](C)C)cc-2oc2c1ccc1cccc(OC)c12.[Cl-] [Compound 6, N-(1-methoxy-7-(2-(methoxycarbonyl)phenyl)-10H-benzo[c]xanthen-10-ylidene)-N-methylmethanaminium chloride]
- pH and solvent sensitivity of UV and fluorescence spectra [1]: insensitive to variations in pH or solvent
- Quantum yield [1, 12]: 9.32%
- λmax em [1, 12]: 606 nm
- Brightness [1, 13]: 2094
- Stokes shift [1, 13]: 38 nm
- Extinction coefficient [1, 3]: 22470 M⁻¹ cm⁻¹
- λmax abs [1, 3]: 568 nm

More lines, main results first:

- Extinction coefficient [1, 3]: 21742 M⁻¹ cm⁻¹
SMILES: COC(=O)c1ccccc1-c1c2ccc(=N)cc-2oc2c1ccc1cccc(OC)c12.O=C(O)O [Compound 4, 1-methoxy-7-(2-(methoxycarbonyl)phenyl)-10H-benzo[c]xanthen-10-iminium bicarbonate]
- pH and solvent sensitivity of UV and fluorescence spectra [1]: insensitive to variations in pH or solvent

- Brightness ([1]; acidic solution pH 1.9, HCl): 226
- Stokes shift ([1]; acidic solution pH 1.9, HCl): 62 nm
- Extinction coefficient ([1]; acidic solution pH 1.9, HCl): 19787 M⁻¹ cm⁻¹
- λmax abs ([1]; acidic solution pH 1.9, HCl): 542 nm
- Quantum yield [1, 7]: 1.14%
- λmax em [1, 7]: 604 nm
- Extinction coefficient [1, 8]: 15589 M⁻¹ cm⁻¹
- λmax abs [1, 8]: 621 nm
- Brightness ([1]; conjugate base, pH 12.1, NaOH): 17
- Stokes shift ([1]; conjugate base, pH 12.1, NaOH): 149 nm
- Quantum yield [1, 9]: 0.11%
- λmax em [1, 9]: 770 nm
- pKa ([2]; Table 1): 6.67 +/− 0.11
SMILES: COC(=O)c1ccccc1-c1c2ccc(=N)cc-2oc2c1ccc1cccc(O)c12.Cl [Compound 3, 1-hydroxy-7-(2-(methoxycarbonyl)phenyl)-10H-benzo[c]xanthen-10-iminium chloride]
- pH and solvent sensitivity of UV and fluorescence spectra [1]: exhibit pH as well as solvent sensitivity

- Extinction coefficient ([1]; acidic solution pH 1.9, HCl): 20399 M⁻¹ cm⁻¹
- Extinction coefficient [1, 8]: 17252 M⁻¹ cm⁻¹
- λmax abs [1, 8]: 632 nm
- Brightness ([1]; conjugate base, pH 12.1, NaOH): 29
- Stokes shift ([1]; conjugate base, pH 12.1, NaOH): 148 nm
- Quantum yield [1, 9]: 0.17%
- λmax em [1, 9]: 780 nm
SMILES: COC(=O)c1ccccc1-c1c2ccc(=[N+](C)C)cc-2oc2c1ccc1cccc(O)c12 [Compound 5, N-(1-hydroxy-7-(2-(methoxycarbonyl)phenyl)-10H-benzo[c]xanthen-10-ylidene)-N-N-dimethyl iminium bicarbonate]
- pH and solvent sensitivity of UV and fluorescence spectra [1]: exhibit pH as well as solvent sensitivity

- Extinction coefficient [1, 10]: 5664 M⁻¹ cm⁻¹ and 8300 M⁻¹ cm⁻¹
- Extinction coefficient [1, 11]: 3996 M⁻¹ cm⁻¹
- λmax abs [1, 11]: 598 nm
- Stokes shift ([1]; conjugate acid, pH 1.9, HCl): 172 nm
- λmax em ([1]; conjugate acid, pH 1.9, HCl): 770 nm
SMILES: COC(=O)c1ccccc1-c1c2ccc(=O)cc-2oc2c1ccc1cccc(N)c12 [Compound 7, methyl 2-(1-amino-10-oxo-10H-benzo[c]xanthen-7-yl)benzoate]
- pH and solvent sensitivity of UV and fluorescence spectra [1]: not affected by either solvent changes or by solution pH values above 2
